Results reported in paper PMC11876601 (Molecular Systems Biology, 2025).
Like-named read-outs stand apart in the source and are kept apart here. One block for each compound: values may come before it.

Experiments:
13 PDAC cell lines = test: Phenotypic drug combination viability screen (ATPlite, 72 h), cell line panel; type: cell-based, human; conditions: of 13 cell lines; Bliss model
Method: Cell viability was assessed by measuring ATP levels to indicate metabolic activity.
Afterward, small amounts were transferred to 384-well intermediate plates (Greiner Bio-One GmbH, Germany). […] For drug combination screening, 1000 to 5000 cells were seeded into 384-well plates (CulturPlate™, Perkin Elmer, MA, USA) using a Multidrop™ Combi Reagent Dispenser (Thermo Scientific, MA, USA) in 50 µl medium per well 24 h prior to drug treatment (seeding densities see Appendix Table S1). […] The final DMSO concentration in each well was 0.2%. […] Eight wells per plate without library drug served as negative controls, and sixteen wells per plate containing 5 µM Staurosporine served as positive controls. Control plates not containing any drug were used to correct for incubation effects, and data quality was assessed by calculation of Z-prime of positive and negative controls according to1 Z-prime=1−3SDpos+3SDneg/[…] where SD is the standard deviation. […] Dose–response curves from the experimental and hypothetical data were compared, and shifts in AUC were used to describe combination effects (AUC∆ = AUChypothetical − AUCexperimental). […] Only combinations with R^2 > 0.8 in both conditions were considered in the synergy analysis.

MAP3K4 = conditions: Kinobeads; ref Klaeger et al, 2017a; Reinecke et al, 2023a; read-out: KDapp; cited from earlier work
30 PDAC cell lines = conditions: ref Jaaks et al, 2022; cited from earlier work
AsPC-1 [1] = test: cells; parameters: ATPlite luminescence viability of PDAC cell lines, 11-dose single-agent curves, 4-parameter fit; conditions: Homo sapiens, ASPC1, 72 h, read-out: EC50 [nM]
Summary of the method: (§1)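 cells (1000 to 5000 per well) seeded 24 h before drug addition in a combination screen at 0.2% final DMSO. Controls were drug-free wells (negative) and 5 µM staurosporine (positive).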

Capan-1 [2] = test: cells; parameters: ATPlite luminescence viability of PDAC cell lines, 11-dose single-agent curves, 4-parameter fit; conditions: Homo sapiens, CAPAN-1, 72 h, read-out: EC50 [nM]
Summary of the method: as §1

Colo-357 = test: cells; parameters: ATPlite luminescence viability of PDAC cell lines, 11-dose single-agent curves, 4-parameter fit; conditions: Homo sapiens, COLO357, 72 h, read-out: EC50 [nM]
Summary of the method: as §1

Dan-G = test: cells; parameters: ATPlite luminescence viability of PDAC cell lines, 11-dose single-agent curves, 4-parameter fit; conditions: 72 h, read-out: EC50 [nM]
Summary of the method: as §1

FAMPAC = test: cells; parameters: ATPlite luminescence viability of PDAC cell lines, 11-dose single-agent curves, 4-parameter fit; conditions: 72 h, read-out: EC50 [nM]
Summary of the method: as §1

HPDE = test: cells; parameters: ATPlite luminescence viability of PDAC cell lines, 11-dose single-agent curves, 4-parameter fit; conditions: HPDE, 72 h, read-out: EC50 [nM]
Summary of the method: as §1

HuP-T4 [3] = test: cells; parameters: ATPlite luminescence viability of PDAC cell lines, 11-dose single-agent curves, 4-parameter fit; conditions: Homo sapiens, HuP-T4, 72 h, read-out: EC50 [nM]
Summary of the method: as §1

MiaPaCa-2 [4] = test: cells; parameters: ATPlite luminescence viability of PDAC cell lines, 11-dose single-agent curves, 4-parameter fit; conditions: Homo sapiens, MIA PaCa-2, 72 h, read-out: EC50 [nM]
Summary of the method: as §1

PSN-1 [5] = test: cells; parameters: ATPlite luminescence viability of PDAC cell lines, 11-dose single-agent curves, 4-parameter fit; conditions: Homo sapiens, PSN1, 72 h, read-out: EC50 [nM]
Summary of the method: as §1

PaTu-8988-T [6] = test: cells; parameters: ATPlite luminescence viability of PDAC cell lines, 11-dose single-agent curves, 4-parameter fit; conditions: Homo sapiens, PaTu 8988t, 72 h, read-out: EC50 [nM]
Summary of the method: as §1

Suit2-07 = test: cells; parameters: ATPlite luminescence viability of PDAC cell lines, 11-dose single-agent curves, 4-parameter fit; conditions: 72 h, read-out: EC50 [nM]
Summary of the method: as §1

advanced PDAC patients = test system: advanced PDAC patients; parameters: method as in Moore et al, 2007; conditions: Erlotinib + GEM, ref Moore et al, 2007; cited from earlier work
BxPC-3 = test: cells; parameters: ATPlite luminescence viability of PDAC cell lines, 11-dose single-agent curves, 4-parameter fit; conditions: Homo sapiens, BXPC-3, 72 h, read-out: EC50 [nM]
Summary of the method: as §1

AsPC-1 [7] = test: cells; parameters: Viability of PDAC cell lines, ATPlite luminescence, 11-dose single-agent curve fit; conditions: Homo sapiens, ASPC1, 72 h, read-out: EC50 [nM]
Summary of the method: (§2)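 cells (1000 to 5000 per well) seeded 24 h before drug addition in a screen at 0.2% final DMSO. Controls were drug-free wells (negative) and 5 µM staurosporine (positive).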

Capan-1 [8] = test: cells; parameters: Viability of PDAC cell lines, ATPlite luminescence, 11-dose single-agent curve fit; conditions: Homo sapiens, CAPAN-1, 72 h, read-out: EC50 [nM]
Summary of the method: as §2

HuP-T4 [9] = test: cells; parameters: Viability of PDAC cell lines, ATPlite luminescence, 11-dose single-agent curve fit; conditions: Homo sapiens, HuP-T4, 72 h, read-out: EC50 [nM]
Summary of the method: as §2

MiaPaCa-2 [10] = test: cells; parameters: Viability of PDAC cell lines, ATPlite luminescence, 11-dose single-agent curve fit; conditions: Homo sapiens, MIA PaCa-2, 72 h, read-out: EC50 [nM]
Summary of the method: as §2

PANC-1 = test: cells; parameters: Viability of PDAC cell lines, ATPlite luminescence, 11-dose single-agent curve fit; conditions: Homo sapiens, PANC-1, 72 h, read-out: EC50 [nM]
Summary of the method: as §2

PSN-1 [11] = test: cells; parameters: Viability of PDAC cell lines, ATPlite luminescence, 11-dose single-agent curve fit; conditions: Homo sapiens, PSN1, 72 h, read-out: EC50 [nM]
Summary of the method: as §2

PaTu-8988-T [12] = test: cells; parameters: Viability of PDAC cell lines, ATPlite luminescence, 11-dose single-agent curve fit; conditions: Homo sapiens, PaTu 8988t, 72 h, read-out: EC50 [nM]
Summary of the method: as §2

EC50 (AsPC-1 [1]): 171 nM | EC50 (Colo-357): 135 nM | EC50 (MiaPaCa-2 [4]): 244 nM
Compound: C=CCn1c(=O)c2cnc(Nc3ccc(N4CCN(C)CC4)cc3)nc2n1-c1cccc(C(C)(C)O)n1 [Adavosertib]
number of cell lines with synergy with GEM (13 PDAC cell lines): 7 cell lines | Kd (MAP3K4): 52 nM | synergy with GEM (30 PDAC cell lines): to a lesser extent | EC50 (Capan-1 [2]): 327 nM | EC50 (Dan-G): 147 nM | EC50 (FAMPAC): 268 nM | EC50 (HPDE): 946 nM | EC50 (HuP-T4 [3]): 5570 nM | EC50 (PSN-1 [5]): 464 nM | EC50 (PaTu-8988-T [6]): 154 nM | EC50 (Suit2-07): 206 nM

EC50 (BxPC-3): 2060 nM | EC50 (Colo-357): 1040 nM | EC50 (AsPC-1 [7]): > 10000 nM | EC50 (MiaPaCa-2 [10]): 4050 nM | EC50 (PANC-1): 36.8 nM
Compound: C#Cc1cccc(Nc2ncnc3cc(OCCOC)c(OCCOC)cc23)c1 [Erlotinib]
improvement of overall survival over GEM alone (advanced PDAC patients): two weeks | EC50 (Dan-G): 630 nM | EC50 (FAMPAC): 3940 nM | EC50 (HPDE): 552 nM | EC50 (Suit2-07): > 10000 nM | EC50 (Capan-1 [8]): 2940 nM | EC50 (HuP-T4 [9]): 8400 nM | EC50 (PSN-1 [11]): 5920 nM | EC50 (PaTu-8988-T [12]): 5260 nM
